Values joined by “and” are separate entries in the source; they are usually repeats but may differ in a detail not shown here. Identical values can stand only once.
How the values were obtained:
Format in all cases: in vivo, human
VDT workers [1] = experiment: Example 2: systemic side effects during 4-week administration; conditions: B group, 5 mg/day orally for 4 weeks
Description: (§1) As a control, 13 persons who have not been administered astaxanthin and have not worked in a VDT operation were indicated as the A group. 26 VDT workers were divided into two groups at random. The B group (13 persons) was orally administered 5 mg of astaxanthin/day for 4 consecutive weeks while the C group (13 persons) was orally administered a placebo for 4 consecutive weeks. No significant difference was recognized in age among the three groups.
(§2) An astaxanthin capsule (5 mg/capsule) was orally administrated to each of the B group subjects one time a day 30 minutes before supper.

VDT workers [2] = experiment: Example 2: critical flicker fusion (C.F.F. tester)
Description: as §1
(§3) A double-blind test was conducted for the B and C groups.
(§4) Also, 26 workers were selected who had been engaged in a VDT operation for 4 hours per day, for 5 days (Monday to Friday every week) per week and for a year or more. Their eyes were better than twenty-twenty (20/20). All of them wore eyeglasses for accommodation during the VDT operation.
(§5) A double-blind test was conducted with respect to the VDT workers. The VDT workers were divided into an astaxanthin-administration group (n=13, B group) and placebo-administration group (n=13, C group). There was no difference in age among the three groups (Table 2 shown below).
as §2
(§6) All of these measurement items were conducted with each right eye of the subjects at a.m. 9:00-12:00 on a Saturday.
The critical flicker fusion was determined by decreasing the frequency of the signals at a constant speed using a C.F.F. tester (a product of Yagami Co., Ltd.). There was used the average value of the three times value measured by the individual eyes of the subjects.
(§7) The data on before and after administration were analyzed statistically using a paired t-test. Also, the data for the A and B groups and those for the A and C groups were measured in an unpaired test. The probability value is below 0.05 that is considered to be significant.

VDT workers [3] = experiment: Example 2: eyesight at 5 m and 35 cm using a Landolt ring; conditions: B group, 5 mg/day orally for 4 weeks
Description: as §4, §5, §2
The eyesight was measured at each distance of 5 m and 35 cm using a Landolt ring.

VDT workers [4] = experiment: Example 2: eye-accommodability (near point minus far point, D'Acomo apparatus), double-blind vs placebo; conditions: mean ± SD, dioptres
Description: as §1, §3
Also, 26 workers were selected who had been engaged in a VDT operation for 4 hours per day, for 5 days (Monday to Friday every week) per week and for a year or more. […]
The eye-accommodability was evaluated by measurement of the near and far points.
The near point was measured with a D'Acomo apparatus (binocular opening constant point refraction near point ruler, a product of World Optical Corporation) according to the Uozato et al' method (Uozato H, Nagakawa A, Hirai H, Saishin M: A new near-point ruler using constant dioptric stimulus. Folia Ophthalmol Jpn 1988;39:1247-1248).
The far point was measured in the best-corrected refraction for each of the subjects.
The eye-accommodability (dioptres) was calculated by subtracting the far point (dioptres) from the near point (dioptres).
The data on before and after administration were analyzed statistically using a paired t-test. […]

VDT workers [5] = experiment: Example 2: pattern visual evoked potentials (P100 amplitude and latency)
Description: as §1, §3, §4, §5, §2, §6
The pattern visual evoked potential was recorded according to the method established by the International Society for Clinical Electrophysiology of Vision to measure one positive peak strength (P100) and the latency (the difference […] between N75 peak and P100 peak).
as §7

[6] = test system: person having subjective symptoms of eyestrain or working for VDT operation; experiment: Example 1: double-blind accommodability test with an accommodometer, test food vs control food for 4 weeks; conditions: intake of astaxanthin for 4 consecutive weeks; difference not recognized in control group
Description: People satisfying the following selection standards were used as subjects.
(1) A person having subjective symptoms of eyestrain or working for VDT operation, (2) 1.0 or more of both eyes in vision after correction. (3) 35-59 years old, (4) persons who do notusually take any medicines or health foods, (5) a person who can keep in compliance with all the test-related requirements and take the medical examinations stipulated by the test method.
Persons who have retinal disorders or cataracts were excluded from the subjects.
A test food with 5 mg /capsule of astaxanthin and a control food with 0 mg /capsule of astaxanthin were prepared. The test was conducted in a double-blind method.
After completion of the accommodability test for the subjects using an accommodometer by which the change in the refraction value (accommodation reaction) during moving object can be measured continuously and objectively, and accommodation abnormalities including VDT syndrome can be detected clearly.
A person in charge of the test prepared a subjects' name-list stratified by sex and the test results and handed it to a controller. The controller prepared an allocation table separating the subjects into test food group and control food group based on the name list. In addition, the controller stuck each label with a subject's name on the test food or control food according to the allocation table. […]

[7] = B group baseline, n = 13 eye, mean ± SD
[8] = B group, 5 mg/day orally for 4 weeks, n = 13 eye, mean ± SD
[9] = B group, 5 mg/day orally for 4 weeks, vs before administration

## CC1=C(/C=C/C(C)=C/C=C/C(C)=C/C=C/C=C(C)/C=C/C=C(C)/C=C/C2=C(C)C(=O)C(O)CC2(C)C)C(C)(C)CC(O)C1=O (stereo not drawn) [astaxanthin, 3,3′-dihydroxy-β,β-carotene-4,4′-dione]
VDT workers [1]
  Systemic side effects: no systemic side effects were recognized
VDT workers [2]; [7]
  CFF (Hz), before administration of astaxanthin: 39.9 ± 5.3 Hz
VDT workers [2]; [8]
  CFF (Hz), after administration of astaxanthin: 38.4 ± 4.8 Hz
VDT workers [2]; [9]
  Change of critical flicker fusion after administration: did not (appreciably) change
VDT workers [3]
  Change of eyesight at distances of 5 m and 35 cm, before vs after administration: did not appreciably change
VDT workers [4]; B group baseline, n = 13 eye (right eye), p<0.05 lower than non-VDT A group (3.7 ± 1.5)
  Accommodability (D), before administration of astaxanthin: 2.3 ± 1.4 D
VDT workers [4]; B group, 5 mg astaxanthin/day orally for 4 consecutive weeks, n = 13 eye, p<0.01 vs before administration
  Accommodability (D), after administration of astaxanthin: 2.8±1.6 D
VDT workers [5]; [7]
  PVEP-P100 Amplitude (μV), before administration of astaxanthin: 5.8±1.7 μV
  PVEP-P100 Latency (msec), before administration of astaxanthin: 102.5 ± 6.9 ms
VDT workers [5]; [8]
  PVEP-P100 Amplitude (μV), after administration of astaxanthin: 5.6±1.6 μV
  PVEP-P100 Latency (msec), after administration of astaxanthin: 104 ± 7.4 ms and 104.8 ± 7.4 ms
VDT workers [5]; [9]
  Change of amplitude of P100 in pattern visual evoked potentials after administration: did not appreciably change
  Change of latency of P100 in pattern visual evoked potentials after administration: did not appreciably change
[6]
  Change of eye-accommodability, before vs after intake: increased in the test food group by a statistically significant difference

Reference: US20050171214A1, “Medicament for improving the failure of accommodation” (Fuji Chemical Industry Co., Ltd., priority 2001, published 2005)
